Test results from patent US10232043B2, “Photoactivated molecules for light-induced modulation of the activity of electrically excitable cells and methods of using the same” (UNIVERSITY OF SOUTHERN CALIFORNIA, priority 2015, dated 2019).
Entries after “also recorded” stand apart in the source; their conditions may differ.

What was measured:
[1] = test system: mouse adrenal chromaffin cells; assay: Perforated patch clamp, light-triggered action potentials; format: cell-based
Procedure: Action potentials in chromaffin cells were monitored using perforated patch clamp electrophysiology in current-clamp mode, using an EPC10 amplifier and Pulsemaster data acquisition software (HEKA electronics). A coverslip containing mouse chromaffin cells was transferred to a recording chamber and perfused with extracellular solution. Extracellular solution consists of 140 mM NaCl, 2.8 mM KCl, 10 mM HEPES, 1 mM MgCl2, 2 mM CaCl2, 10 mM glucose, pH adjusted to 7.3, and osmolarity adjusted to 290-300 mOsm. Intracellular solution consisted of 145 mM KCl, 10 mM NaCl, 1 mM MgCl2, and 10 mM HEPES, pH adjusted to 7.3 and osmolarity adjusted to 290-300 mOsm. Perforation solution was prepared by adding 4.5 μl of 125 mg/ml stock of amphoterecin B (Sigma) in DMSO to 1.8 mls of intracellular solution, and homogenizing for 540 s. Perforation was achieved within 3-10 min following gigaseal formation. Series resistances were in the range of 8-22 Mohm. Light stimulation in the blue spectrum originated from a xenon lamp source with an irradiance value of 0.480 mE s^−1 m^−2 through a 470/40 nm bandpass excitation filter. The duration of illumination varied and is indicated by bars on figures.
The behavior of excitable cells (cells capable of firing action potentials) treated with RubpyC17 was next investigated. Perforated patch clamp recording was performed on, mouse adrenal chromaffin cells pretreated with 450-900 nM RubpyC17 for 15-30 minutes before beginning electrophysiological recordings.

[2] = test system: RCS rats; assay: Histology of the retina after injection; format: in vivo, rat; settings: 3 days after injection, preliminary
From the text: (§1) This finding was reproduced in 3 of 3 RCS rats injected with Rubpy-C17, and in 2 of 2 control (sham injection) RCS rats.

[3] = test system: RCS rats; assay: Pupillary light response after eye injection; format: in vivo, rat
From the text: FIG. 28 illustrates the pupillary light response in RCS rats.
as §1

CCCCCCCCCCCCCCCCCc1ccnc(-c2cc(C)ccn2)c1.F[P-](F)(F)(F)(F)F.F[P-](F)(F)(F)(F)F.[Ru+2].c1ccc(-c2ccccn2)nc1.c1ccc(-c2ccccn2)nc1 [RubpyC17, [Ru(bpy)2(bpy-C17)](PF6)2]
light effect on action potential firing ([1]; 900 nM RubpyC17 pretreatment, 5 mM ascorbate): triggered action potentials or increased the rate of action potential firing
action potential firing rate of a single cell ([1]; 2 μM for 1.5 min, ascorbate changed for ferricyanide): light-induced increase and then light-induced decrease
reversal of firing effect after light illumination terminated ([1]; chromaffin cells): slow, gradual reversal; also recorded: slowly reversed
shape of action potential waveforms under light ([1]; chromaffin cells): no change in the shape of action potential waveforms
light effect on rate of action potential firing ([1]; ferricyanide 100 μM): decreased the rate of action potential firing
effect of increasing ferricyanide on action potential firing ([1]; ferricyanide from 100 to 200 μM): further suppressed action potential firing
retinal histology / pathology [2]: no evidence of retinal cell death or white blood cell infiltrates; also recorded: absence of obvious signs of deleterious effects
pupillary light reflex in injected eye ([3]; RCS rat, not in non-injected eye): vigorous pupillary light reflex was observed; also recorded: pupil constricts
time of pupillary light reflex ([3]; injected eye): < 3 s
